The values that follow come from patent US20240124460A1, “METHODS AND COMPOSITIONS FOR TARGETED PROTEIN DEGRADATION” (Ranok Therapeutics (Hangzhou) Co. Ltd., priority 2020, published 2024).

Like-named read-outs stand apart in the source and are kept apart here.

Test [1] has as its target T1, HSP90α protein (Homo sapiens, UniProt P07900).
T1 construct: purchased BPS Bioscience #50298
In words: HSP90α-binding FP (BODIPY) assay. The settings on record: FP competition with BODIPY-labeled RNK04010. Put shortly:
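Fluorescence polarization measured competition with N-terminal human HSP90α, using either FITC-geldanamycin or BODIPY-labelled triazolone RNK04010 as tracer (5 nM final each). Compounds were tested in 2.5-fold dilutions from 20 μM to 5.2 nM, with incubation at 25 °C for 120 min (FITC) or 300 min (BODIPY).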

The next test relates to ERBB2. The test is described as follows: ERBB2 (HER2) flow cytometry protein degradation assay in BT-474 cells. The format is cell-based, human. The note with it: DC50, BT-474 cells, 24 hr. Put shortly:
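BT-474 cells trypsinised after compound treatment and stained with PE-conjugated anti-ERBB2 antibody, 30 min at 25° C in the dark, then fixed in 1% paraformaldehyde for flow cytometry. % inhibition = 100−(D−B)/(S−B)*100, using treated, untreated-stained and unstained cell fluorescence.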

The test system of test [2] is MV-4-11 human acute myeloid leukemia. In words: MV-4-11 CCK-8 proliferation assay. The test is classed as cell-based. The settings on record: MV-4-11 cells, 72 hr. An outline of the steps:
(§1)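 Cells cultured per ATCC recommendations and treated with 3-fold serial dilutions of compound from 20 μM to 1.02 nM. Viability by CCK-8 absorbance; % inhibition computed relative to DMSO-treated cells, with cell-free medium plus DMSO as blank.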

In test [3] the test system is U-87 MG human glioblastoma. In words: U87 MG CCK-8 proliferation assay. The format is cell-based. The note with it: U-87 MG cells, read-out: U87MG CCK-8. Put shortly:
as §1

For test [4], the target named is T2, MAPK7 (Homo sapiens, UniProt Q13164). The test is described as follows: MAPK7 kinase assay (ADP-Glo). The settings on record: ATP 340 μM. Also on record: purchased Carna Biosciences #04-146. The format is biochemical. As to the method:
The inhibition of MAPK7 kinase activity by test compounds was measured by the ADP-Glo Kinase Assay (Promega, #V6930), following the manufacturer's instructions, except as noted. 3-fold serial dilutions of each test compound were prepared ranging from 50 μM to 2.54 nM. Also, as a positive control, a 4-fold serial dilution of the MAPK7 inhibitor, XMD17-109 (MedChemExpress, #HY-15665) was prepared ranging from 10 μM to 0.04 nM. In brief, in 384-well plates, test compounds were added to the kinase reaction mix containing recombinant MAPK7 protein (Carna Biosciences, #04-146; 20 nM final concentration), myelin basic protein (SignalChem Biotech, #M42-54G; 0.1 mg/ml final concentration) and ATP (340 μM final concentration), then mixed by shaking and incubated with ADP-Glo Reagent and Kinase Detection Reagent. Luminescence was measured on a BioTek plate reader.
Lumpositive: The average ratio for 10 wells of positive controls (10 μM XMD17-109) across the plate.
Lumvehicle: The average ratio for 10 wells of negative controls (0.5% DMSO) across the plate.

Test [5] has as its target T2, MAPK7. In words: MAPK7 Western blot protein degradation assay in U-87 MG cells. Also on record: U-87 MG human glioblastoma cells, which express MAPK7; endogenous in cells; host or cells: U-87 MG. The note with it: 48 hr. The format is cell-based. An outline of the steps:
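U-87 MG glioblastoma cells treated with compounds at various concentrations for 48 h at 37 °C. MAPK7 (ERK5) levels in protein-normalized lysates measured by Western blot with β-actin as loading reference, quantified by fluorescence imaging.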

Test [6] concerns the target T1, HSP90α protein. In words: HSP90α-binding FP (FITC) assay. The note with it: FP competition with FITC-geldanamycin. On the procedure:
Binding of test compounds to HSP90α protein was measured by fluorescent polarization (FP) using the HSP90α (N-terminal) Assay Kit (BPS Bioscience, #50298), following the manufacturer's instructions, except as noted. Fluorescently labeled HSP90-binding compounds, either the provided FITC-geldanamycin (5 nM final concentration) or RNK04010, a triazolone-based HSP90 binding small molecule labeled with BODIPY through a piperazine-phenyl linker (5 nM final concentration) were employed. A 2.5-fold serial dilution of each test compound ranging from 20 μM to 5.2 nM was assayed for binding to HSP90α. After the final step of adding HSP90α protein to each assay well, plates were mixed by brief shaking, incubated at 25° C. for 120 min for FITC-geldanamycin or 300 min for RNK04010, and fluorescence was measured using a PerkinElmer EnVision Plate Reader.

For test [7], the system named is MDA-MB-231 human breast adenocarcinoma. In words: MDA-MB-231 CCK-8 proliferation assay. The test is classed as cell-based. The settings on record: MDA-MB-231 cells, 72 hr. As to the method:
(§2) The following cancer cell lines were employed: A549 human lung carcinoma (ATCC, #CCL-185); BT-474 human breast carcinoma (ATCC, #HTB-20); MDA-MB-231 human breast adenocarcinoma (ATCC, #CRM−HTB-26); MDA-MB-468 human breast adenocarcinoma (ATCC, #HTB-132); MV-4-11 human acute myeloid leukemia (ATCC, #CRL-9591); and U-87 MG human glioblastoma (ATCC, #HTB-14). Cell lines were cultured essentially according to ATCC recommendations.
(§3) 3-fold serial dilutions of each test compound were prepared ranging from 20 μM to 1.02 nM.
(§4) % Inhibition=100−(D−B)/(S−B)*100%. • S: Absorbance of cells treated with DMSO • D: Absorbance of compound-treated cells • B: Absorbance of medium with DMSO without cells

The test system of test [8] is MDA-MB-468 human breast adenocarcinoma. The test is described as follows: MDA-MB-468 CCK-8 proliferation assay. The test is classed as cell-based. The settings on record: MDA-MB-468 cells, 72 hr. On the procedure:
as §2, §3, §4

T2 sequence (Q13164 whole entry): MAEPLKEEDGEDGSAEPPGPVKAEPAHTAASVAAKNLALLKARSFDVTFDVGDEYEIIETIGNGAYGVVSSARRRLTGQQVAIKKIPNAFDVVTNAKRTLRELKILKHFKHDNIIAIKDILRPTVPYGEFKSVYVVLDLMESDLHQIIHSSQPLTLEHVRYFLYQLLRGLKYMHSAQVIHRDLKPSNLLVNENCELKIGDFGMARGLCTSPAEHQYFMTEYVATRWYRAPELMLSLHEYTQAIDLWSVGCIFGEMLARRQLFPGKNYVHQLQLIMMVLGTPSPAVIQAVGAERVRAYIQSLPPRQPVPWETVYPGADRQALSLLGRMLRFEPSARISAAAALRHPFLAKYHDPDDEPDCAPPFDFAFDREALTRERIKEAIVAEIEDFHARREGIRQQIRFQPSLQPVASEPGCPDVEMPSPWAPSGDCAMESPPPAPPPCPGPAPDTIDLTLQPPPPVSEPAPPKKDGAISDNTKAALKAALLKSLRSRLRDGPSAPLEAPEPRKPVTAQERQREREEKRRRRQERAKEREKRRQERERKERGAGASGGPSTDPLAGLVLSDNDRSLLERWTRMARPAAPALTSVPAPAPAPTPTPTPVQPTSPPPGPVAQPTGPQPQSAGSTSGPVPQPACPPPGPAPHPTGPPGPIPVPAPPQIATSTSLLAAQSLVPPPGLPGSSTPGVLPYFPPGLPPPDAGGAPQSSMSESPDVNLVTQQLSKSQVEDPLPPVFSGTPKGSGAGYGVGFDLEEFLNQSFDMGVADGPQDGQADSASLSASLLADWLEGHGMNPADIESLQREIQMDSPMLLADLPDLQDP

As to `CCOc1cc(N2CCC(C(=O)N3CCC(CN4CCN(Cc5ccc(-n6c(O)nnc6-c6cc(C(C)C)c(O)cc6O)cc5)CC4)CC3)CC2)ccc1Nc1ncc2c(n1)N(C)c1ccccc1C(=O)N2C.Cl` [Compound 032, 2-((4-(4-(4-((4-(4-(3-(2,4-dihydroxy-5-isopropylphenyl)-5-hydroxy-4H-1,2,4-triazol-4-yl)benzyl)piperazin-1-yl)methyl)piperidine-1-carbonyl)piperidin-1-yl)-2-ethoxyphenyl)amino)-5,11-dimethyl-5,11-dihydro-6H-benzo[e]pyrimido[5,4-b][1,4]diazepin-6-one], the IC50 at HSP90α protein [1] was less than 100 nM. Further, in the test on ERBB2, the ERBB2 degradation entry is reported as “B (DC50 = 100-1000 nM)”. The molecule further had an EC50 in test [2] (Homo sapiens, MV4-11) of less than 100 nM. In addition, the EC50 in test [3] (Homo sapiens, U-87 MG, 72 h) lay in the range of 100 to 1000 nM. The molecule also gave an IC50 on MAPK7 [4] greater than 1000 nM. At MAPK7 [5], the “MAPK7 degradation (30 nM)” value was “C (< 33% degradation)”, the “MAPK7 degradation (100 nM)” value is recorded as “B (33-66% degradation)” and the “MAPK7 degradation (1000 nM)” value was “A (>66% degradation)”. Besides, the “MAPK7 degradation (300 nM)” value on MAPK7 [5] (300 nM) is given as “A (>66% degradation)”.

Regarding `CCOc1cc(N2CCC(C(=O)N3CCC(CN4CCN(Cc5ccc(-n6c(O)nnc6-c6cc(C(C)C)c(O)cc6OC)cc5)CC4)CC3)CC2)ccc1Nc1ncc2c(n1)N(S(C)(=O)=O)c1ccccc1C(=O)N2C` [Compound 128, 2-((2-ethoxy-4-(4-(4-((4-(4-(3-hydroxy-5-(4-hydroxy-5-isopropyl-2-methoxyphenyl)-4H-1,2,4-triazol-4-yl)benzyl)piperazin-1-yl)methyl)piperidine-1-carbonyl)piperidin-1-yl)phenyl)amino)-5-methyl-11-(methylsulfonyl)-5,11-dihydro-6H-benzo[e]pyrimido[5,4-b][1,4]diazepin-6-one], the IC50 on HSP90α protein [6] was greater than 1000 nM; at MAPK7 [4] it was less than 100 nM. For the same molecule, the EC50 was greater than 1000 nM in test [2] (Homo sapiens, MV4-11) and greater than 1000 nM in test [3] (Homo sapiens, U-87 MG, 72 h).

On HSP90α protein [1], `CCOc1cc(N2CCC(C(=O)NCCOCc3ccc(-n4c(O)nnc4-c4cc(C(C)C)c(O)cc4O)cc3)CC2)ccc1Nc1ncc2c(n1)N(C)c1ccccc1C(=O)N2C` [Compound 053, N-(2-((4-(3-(2,4-dihydroxy-5-isopropylphenyl)-5-hydroxy-4H-1,2,4-triazol-4-yl)benzyl)oxy)ethyl)-1-(4-((5,11-dimethyl-6-oxo-6,11-dihydro-5H-benzo[e]pyrimido[5,4-b][1,4]diazepin-2-yl)amino)-3-ethoxyphenyl)piperidine-4-carboxamide] had an IC50 of 100 to 1000 nM. For the same molecule, the EC50 is 100 to 1000 nM in [7], less than 100 nM in test [8], less than 100 nM in test [2] and 100 to 1000 nM in test [3] (72 hr).

For the molecule `CCOc1cc(N2CCC(C(=O)NCCOCCNC(=O)O[C@H]3CC[C@H](Nc4cc(-n5nc(C(F)(F)F)c6c5CC(C)(C)CC6=O)ccc4C(N)=O)CC3)CC2)ccc1Nc1ncc2c(n1)N(C)c1ccccc1C(=O)N2C` [Compound 103, (1R,4R)-4-((2-carbamoyl-5-(6,6-dimethyl-4-oxo-3-(trifluoromethyl)-4,5,6,7-tetrahydro-1H-indazol-1-yl)phenyl)amino)cyclohexyl (2-(2-(1-(4-((5,11-dimethyl-6-oxo-6,11-dihydro-5H-benzo[e]pyrimido[5,4-b][1,4]diazepin-2-yl)amino)-3-ethoxyphenyl)piperidine-4-carboxamido)ethoxy)ethyl)carbamate], the half-maximal inhibitory concentration (IC50) on HSP90α protein [1] and at MAPK7 [4] was greater than 1000 nM throughout. Also, the ERBB2 degradation entry with ERBB2 is recorded as “C (DC50 > 1000 nM)”. The EC50 is 100 to 1000 nM in test [2] (Homo sapiens, MV4-11) and greater than 1000 nM in test [3] (Homo sapiens, U-87 MG, 72 h).

In turn, `CCOc1cc(N2CCC(C(=O)N3CCN(Cc4ccc(-n5c(O)nnc5-c5cc(C(C)C)c(O)cc5O)cc4)CC3)CC2)ccc1Nc1ncc2c(n1)N(C)c1ccccc1C(=O)N2C` [Compound 024, 2-((4-(4-(4-(4-(3-(2,4-dihydroxy-5-isopropylphenyl)-5-hydroxy-4H-1,2,4-triazol-4-yl)benzyl)piperazine-1-carbonyl)piperidin-1-yl)-2-ethoxyphenyl)amino)-5,11-dimethyl-5,11-dihydro-6H-benzo[e]pyrimido[5,4-b][1,4]diazepin-6-one] gave an IC50 at HSP90α protein [1] of 100 to 1000 nM. In addition, in the test with ERBB2, the ERBB2 degradation result is “B (DC50 = 100-1000 nM)”. In addition, the EC50 in test [2] (Homo sapiens, MV4-11) is less than 100 nM. For the same molecule, in test [3] (Homo sapiens, U-87 MG, 72 h), the EC50 is less than 100 nM. Besides, the IC50 against MAPK7 [4] was greater than 1000 nM. In addition, on MAPK7 [5], the “MAPK7 degradation (30 nM)” value is recorded as “C (< 33% degradation)”, the “MAPK7 degradation (100 nM)” value was “B (33-66% degradation)” and the “MAPK7 degradation (1000 nM)” value is given as “A (>66% degradation)”.

For `CCNC(=O)c1nnc(-c2cc(CC)c(O)cc2O)n1-c1ccc(CN2CCN(CC3CCN(C(=O)C4CCN(c5ccc(Nc6ncc7c(n6)N(S(C)(=O)=O)c6ccccc6C(=O)N7C)c(OCC)c5)CC4)CC3)CC2)cc1.Cl` [Compound 096, 4-(4-((4-((1-(1-(3-ethoxy-4-((5-methyl-11-(methylsulfonyl)-6-oxo-6,11-dihydro-5H-benzo[e]pyrimido[5,4-b][1,4]diazepin-2-yl)amino)phenyl)piperidine-4-carbonyl)piperidin-4-yl)methyl)piperazin-1-yl)methyl)phenyl)-N-ethyl-5-(5-ethyl-2,4-dihydroxyphenyl)-4H-1,2,4-triazole-3-carboxamide], the half-inhibitory concentration (IC50) on HSP90α protein [1] and at MAPK7 [4] was less than 100 nM in each case. Moreover, the ERBB2 degradation result with ERBB2 is “B (DC50 = 100-1000 nM)”. Also, the EC50 in test [2] (Homo sapiens, MV4-11) is less than 100 nM; in [3] (Homo sapiens, U-87 MG, 72 h), less than 100 nM.

`CCOc1cc(N2CCC(C(=O)N3CCC(CN4CCN(Cc5ccc(-n6c(C(=O)NC(C)C(F)(F)F)nnc6-c6cc(CC)c(O)cc6O)cc5)CC4)CC3)CC2)ccc1N(CC)c1ncc2c(n1)N(S(C)(=O)=O)c1ccccc1C(=O)N2C` (centres unmarked) [Compound 115, 4-(4-((4-((1-(1-(3-ethoxy-4-(ethyl(5-methyl-11-(methylsulfonyl)-6-oxo-6,11-dihydro-5H-benzo[e]pyrimido[5,4-b][1,4]diazepin-2-yl)amino)phenyl)piperidine-4-carbonyl)piperidin-4-yl)methyl)piperazin-1-yl)methyl)phenyl)-5-(5-ethyl-2,4-dihydroxyphenyl)-N-(1,1,1-trifluoropropan-2-yl)-4H-1,2,4-triazole-3-carboxamide]: the concentration for half-maximal inhibition (IC50) on HSP90α protein [1] was 100 to 1000 nM; at MAPK7 [4] it was greater than 1000 nM. For the same molecule, the ERBB2 degradation result in the test on ERBB2 is “B (DC50 = 100-1000 nM)”. Moreover, the EC50 in [2] (Homo sapiens, MV4-11) is less than 100 nM; in [3] (Homo sapiens, U-87 MG, 72 h), 100 to 1000 nM.
